The values below come from BindingDB's records for patent US20250346592 (Celgene, 2025).

Bounds are passed on as bounds.

The assay has as its target Protein-arginine deiminase type-4 (Homo sapiens, UniProt Q9UM07). The assay can be described thus: RFMS2 Assay. How it is done: Final Assay Conditions:Total reaction volume: 25 μlAssay buffer: […] pH 7.4, 200 mM NaCl, 2 mM CaCl2, 5 mM DTT35 nM recombinant human PAD4500 μM TSTGGRQGSHH peptide1.2% DMSOStop solution: 10% formic acidReaction mixtures were incubated at room temperature for 30 minutes. 10 μl each of the reaction mixtures was then mixed with 40 μl of 10% formic acid in a microtiter plate. The plate was frozen at −80° C. before shipping out on dry ice for RapidFire mass spectroscopy analysis.Thawed samples were loaded onto the Rapid Fire 300 system (Agilent) wherein they were first sipped for 250 ms and then loaded onto a Agilent “C” (C18) cartridge using a mobile phase of water containing 0.09% formic acid/0.01% trifluoroacetic acid for 3000 ms desalting flowing at a rate of 1.5 ml/min. Once the samples were loaded and washed, a mobile phase of acetonitrile containing 0.09% formic acid/0.01% trifluoroacetic acid was used to elute the samples directly onto a Sciex API4000 triple quadrupole mass spectrometer for 3000 ms at a flow rate of 1.25 ml/min.

For orientation: IC50 means the concentration that inhibits the measured activity by half.

Chain of Protein-arginine deiminase type-4 (Q9UM07 whole entry): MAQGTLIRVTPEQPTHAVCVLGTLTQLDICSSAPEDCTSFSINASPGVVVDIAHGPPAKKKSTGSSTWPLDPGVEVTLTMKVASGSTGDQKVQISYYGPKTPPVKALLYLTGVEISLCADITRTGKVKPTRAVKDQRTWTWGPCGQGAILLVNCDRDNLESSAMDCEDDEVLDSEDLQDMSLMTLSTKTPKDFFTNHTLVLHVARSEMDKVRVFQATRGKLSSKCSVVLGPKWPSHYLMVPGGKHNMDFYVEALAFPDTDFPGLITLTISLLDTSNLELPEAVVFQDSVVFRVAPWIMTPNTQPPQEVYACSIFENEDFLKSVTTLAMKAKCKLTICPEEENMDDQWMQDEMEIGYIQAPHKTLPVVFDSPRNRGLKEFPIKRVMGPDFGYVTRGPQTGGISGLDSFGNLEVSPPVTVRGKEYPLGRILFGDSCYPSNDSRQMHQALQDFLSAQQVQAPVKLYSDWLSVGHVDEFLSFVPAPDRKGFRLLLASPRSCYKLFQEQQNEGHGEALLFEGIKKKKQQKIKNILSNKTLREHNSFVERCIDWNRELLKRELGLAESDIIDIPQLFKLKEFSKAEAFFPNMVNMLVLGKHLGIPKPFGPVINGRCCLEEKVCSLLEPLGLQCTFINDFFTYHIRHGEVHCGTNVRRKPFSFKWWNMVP

Consider `COc1cccc2cc(-c3nc4cc5c(cc4n3C)CCN(C[C@H](N)CF)C5=O)n(CC(=O)N(C)C)c12` [US20250346592, Example 122], for which the IC50 is more than 1000 nM.
